Test system: FcγRIII signaling
Experiment: FcγRIII signaling inhibitor assay: IgG2a-complex stimulated DC18 C10 cells, hTNFα promoter-luciferase reporter
Format: cell-based, mouse
Conditions: DC18 C10 cells stimulated with IgG2a complexes; inhibitor at its described IC50 concentration; FIG. 3
Protocol: Cells are transfected by electroporation at optimised conditions (200V, 960 pF) with a TNFα promoter—luciferase—TNFα 3′ end construct and plated in 10 ml of medium immediately after electroporation and purified by Lymphoprep the next day. 1×10^4 viable cells per well are plated in 96 well microtiter plates in 100 μl of medium each plus 250 μg/ml of geneticin (G418). Two days later 100 μl of fresh medium are added. Every second day 100 μl of medium are removed and substituted by 100 μl of fresh medium. Stable clones are selected by conventional cell culture methods and single cell cloning. […] The best responder is subjected to one round of further limited dilution cloning (single cell cloning) and named DC18 clone10 (=DC18 C10). This clone is selected for all further studies.
1×10^4 cells are seeded in 50 μl medium per well (Optiplate, Packard). Incubation with candidate compounds is done for 45 minutes prior to stimulation with 5 μg/ml of murine IgG of different subtypes complexed either with 10 μg/ml of DNP-BSA or 30 μg/ml of rabbit anti mouse Ig F(ab′)2 fragments. Stimulation is carried on for further 4 hours. Subsequently 13 μl of a 5 times concentrated reporter lysis buffer (Promega) are added and cells are lysed by freeze-(−80°) thaw cycle. For the readout 50 μl of luciferase substrate (Promega) are added and luciferase activity is measured in a MicroBetaJet (Wallac). […]

With `O=c1cc(-c2ccc(O)cc2)oc2cc(O)cc(O)c12` [Apigenin] the “inhibition of IgG2a complexes-provoked luciferase induction (readout)” value was “inhibits IgG2a complexes-provoked luciferase induction”.
